Measurements from US11370775B2, “Substituted benzimidazole derivatives as D-amino acid oxidase (DAAO) inhibitors” (NATIONAL TAIWAN UNIVERSITY, priority 2016, dated 2022).

Experiments:
Assay type in all cases: in vivo
[1] = tested on: MK-801-induced hyperlocomotion in C57BL/6 mice; experiment: Open field, MK-801-induced hyperlocomotion; details: for Effect on MK-801 induced hyperlocomotion (open field): MK-801 0.2 mg/kg i.p., mice; for Effect on MK-801-induced hyperlocomotion (FIG. 1): different dosages, compared to the MK-801 group
Source text: (§1) The NMDA-receptor antagonist MK-801-induced negative or cognitive deficits in C57BL/6 mice were in a well-established drug-induced schizophrenia mouse model and as a useful pharmacological animal model to identify if the RS-D7, its analog and its prodrug improve the symptoms through the NMDA receptor.
(§2) All wild-type (WT) mice used in this study were backcrossed onto a C57BL/6J background from the Laboratory Animal Center of National Taiwan University Hospital, and all behavioral examinations were conducted in WT mice. For acclimatizing to laboratory conditions, the mice were allowed free access to food and water and were housed in groups with a 12 hours light-dark cycle in a temperature and humidity controlled room of the Psychology Department, National Taiwan University. All animals within the age of 3 months were housed individually one week before experiment testing with food and water available ad libitum. In the beginning of the experiments, the mice were handled and weighted daily at least 1 week before the behavioral experiments. The entire animal procedures were performed according to protocols approved by the Animal Care and Use Committee established by the National Taiwan University.
(§3) MK-801 was dissolved in saline and administered at a volume of 0.01 ml/g body weight. RS-D7, Drug 12083 (analog of RS-D7) and was freshly dissolved in 1% CMC to the concentration of 2 mg/ml before usage. Prodrug 28095 was freshly dissolved in NMP:HP-beta-CD:H2O (5:25:70) to the concentration of 2 mg/ml before usage. All animals were given vehicle (saline) or MK-801 (0.2 mg/kg, i.p.) 25 minutes before the behavioral experiments. Both vehicle (1% CMC or NMP:HP-beta-CD:H2O) and experimental groups (RS-D7, Drug 12083 or Prodrug 28095) were treated after 5 minutes MK-801 administration with the appropriate dose via P.O. injections (at a volume of 0.01 ml/g body weight).
(§4) For investigating the treatment effect of RS-D7 for negative and cognitive symptoms, a series of three behavioral tests (run from the first to the third week), which included open field, sucrose preference test and prepulse inhibition were performed in sequence with a 1-week interval between tests.
To assess spontaneous locomotor activity, each subject was placed into the center of an open-field apparatus (25.40*25.40*40.64 cm^3, Coulbourn Instruments, Whitehall, Pa., USA) under dim lighting condition (60 lx). Motor activity parameters (including total travel distance and travel distance per 10 minutes) were monitored and recorded over a 60 minutes period by using Smart video tracking software (Panlab, Harvard apparatus, US). For comparing the treatment effects of different treatment groups, the percentage change of rescue effect on MK-801-induced hyperlocomotion was calculated using the following formula: %=(rescue effect of drug−MK-801 effect)×100%/MK-801 effect.

[2] = tested on: MK-801-induced anhedonia in C57BL/6 mice; experiment: Sucrose preference test, MK-801-induced anhedonia; details: for Effect on MK-801 induced anhedonia (sucrose preference): MK-801 0.2 mg/kg i.p., mice; for Effect on anhedonia after acute MK-801 injection (FIG. 2): different dosages
Source text: as §1, §2, §3, §4
To assess the anhedonia, one of the negative symptoms of schizophrenia, all mice underwent 4-day testing. In the beginning of the sucrose preference, all mice were deprived of water for 23 hours in all the experiment from one day before the first day. On the first day, each mouse was given free access to 2 identical bottles with water for 1 hour. Then, the 2 identical bottles were replaced that one filled with 1% (wt/vol) sucrose solution and the other with water on the second day. On the third and fourth day, each mouse was received MK-801 and RS-D7 treatment before the experiment, and also free accessed to bottles for 1 hour. After the experiment, the 2 bottles were weighted to measure the 1-hour consumption of sucrose solution and water. The sucrose preference percentage (SPP) was calculated using the following formula: % SPP=sucrose solution consumption (g)×100%/[water consumption (g)+sucrose solution consumption (g)].

[3] = tested on: MK-801-induced PPI deficit in C57BL/6 mice; experiment: Prepulse inhibition, MK-801-induced PPI deficit; details: MK-801 0.2 mg/kg i.p.
Source text: as §1, §2, §3, §4
To assess the sensorimotor gating function, each mouse was tested with the SR-LAB startle apparatus (San Diego Instruments, San Diego, Calif., USA). The background noise was 72 dB during testing. Each session was initiated with a 5 minutes acclimatization period followed by 64 trials, consisting of pulse-alone (P-alone) trials, prepulse pulse (pp+P) trials, and no stimulation (nostim) trials. A P-alone trial was a 120 dB white noise burst of 40 msec. In the pp+P trials, the 120 dB pulse was preceded (by 100 msec) by a 20 msec of white noise prepulse burst of 78 dB (PP6), 82 dB (PP10), or 90 dB (PP18). The nostim trials consisted of background noise only. The session began and ended with a block of six presentations of the P-alone trial. Between these two blocks, the rest of the 52 trials were performed pseudorandomly and separated by intertrial intervals of 15 sec on average (varying between 10 and 20 sec). PPI was calculated as a percentage of the startle response using the formula: % PPI=100× [(P-alone score)-(pp+P score)]/(pulse-alone score), where the pulse-alone score was the average of the pulse-alone values from the in-between block of 52 trials.

| SMILES | Effect on MK-801 induced hyperlocomotion (open field) ([1]; 20 mg/kg P.O.) | Effect on MK-801 induced hyperlocomotion (open field) ([1]; 40 mg/kg P.O.) | Effect on MK-801-induced hyperlocomotion (FIG. 1) [1] | Effect on MK-801 induced anhedonia (sucrose preference) ([2]; 20 mg/kg P.O.) | Effect on anhedonia after acute MK-801 injection (FIG. 2) [2] | Effect on MK-801 induced PPI deficit ([3]; 20 mg/kg P.O.) | Effect on MK-801 induced PPI deficit ([3]; 40 mg/kg P.O.) | Effect on MK-801 induced hyperlocomotion (open field) ([1]; 100 mg/kg P.O.) | Effect on MK-801 induced hyperlocomotion (open field) ([1]; 200 mg/kg P.O.) | Effect on MK-801 induced hyperlocomotion (open field) ([1]; 400 mg/kg P.O.) | Effect on MK-801 induced anhedonia (sucrose preference) ([2]; 100 mg/kg P.O.) | Effect on MK-801 induced anhedonia (sucrose preference) ([2]; 200 mg/kg P.O.) | Effect on MK-801 induced anhedonia (sucrose preference) ([2]; 400 mg/kg P.O.) | Effect on MK-801 induced PPI deficit ([3]; 100 mg/kg P.O.) | Effect on MK-801 induced PPI deficit ([3]; 200 mg/kg P.O.) | Effect on MK-801 induced PPI deficit ([3]; 400 mg/kg P.O.) |
| --- | --- | --- | --- | --- | --- | --- | --- | --- | --- | --- | --- | --- | --- | --- | --- | --- |
| COc1c(C)cnc(CSc2nc3cc(C(=O)O)ccc3n2CCC2=CCCCC2)c1C [compound 12083, 1-(2-(cyclohex-1-en-1-yl)ethyl)-2-(((4-methoxy-3,5-dimethylpyridin-2-yl)methyl)thio)-1H-benzo[d]imidazole-5-carboxylic acid] | alleviated MK-801 induced hyperlocomotion deficits | alleviated MK-801 induced hyperlocomotion deficits | can rescue the MK-801-induced hyperlocomotion | normalized MK-801 induced anhedonia | rescue the anhedonia after acute MK-801 injection | significantly alleviated MK-801 induced PPI deficit | significantly alleviated MK-801 induced PPI deficit |  |  |  |  |  |  |  |  |  |
| COc1c(C)cnc(C[S+]([O-])c2nc3ccc(O)cc3[nH]2)c1C (stereo not drawn) [RS-D7, reference compound] |  |  | can rescue the MK-801-induced hyperlocomotion |  | rescue the anhedonia after acute MK-801 injection |  |  | did not display the treatment effect | rescued the MK-801 induced hyperlocomotion | rescued the MK-801 induced hyperlocomotion | rescued the MK-801 induced anhedonia deficit | rescued the MK-801 induced anhedonia deficit | rescued the MK-801 induced anhedonia deficit | significantly alleviated MK-801 induced PPI deficit | significantly alleviated MK-801 induced PPI deficit | significantly alleviated MK-801 induced PPI deficit |
